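1) Cells in 96-well plates. 2) Compound, 48 h, 5 concentrations. 3) Linear interpolation between surrounding doses. 4) Unreached endpoint = highest concentration. Abbreviation: GI50, concentration required for 50% inhibition of growth. The concentration for full growth arrest is given as TGI.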
Columns and labels:
Test in all cases: DTP human tumour cell line panel, 48 h
786-0 renal = test system: 786-0 renal
A498 renal = test system: A498 renal
A549 NSCLC = test system: A549 NSCLC
ACHN renal = test system: ACHN renal
BT-549 breast = test system: BT-549 breast
CAKI-1 renal = test system: CAKI-1 renal
COLO 205 colon = test system: COLO 205 colon
DU-145 prostate = test system: DU-145 prostate
EKVX NSCLC = test system: EKVX NSCLC
HCT-116 colon = test system: HCT-116 colon
HCT-15 colon = test system: HCT-15 colon
HL-60(TB) leukemia = test system: HL-60(TB) leukemia
HOP-62 NSCLC = test system: HOP-62 NSCLC
HOP-92 NSCLC = test system: HOP-92 NSCLC
HS 578T breast = test system: HS 578T breast
HT29 colon = test system: HT29 colon
IGROV1 ovarian = test system: IGROV1 ovarian
K-562 leukemia = test system: K-562 leukemia
KM12 colon = test system: KM12 colon
LOX IMVI melanoma = test system: LOX IMVI melanoma
M14 melanoma = test system: M14 melanoma
MALME-3M melanoma = test system: MALME-3M melanoma
MCF7 breast = test system: MCF7 breast
MDA-MB-231 breast = test system: MDA-MB-231 breast
MDA-MB-435 = test system: MDA-MB-435
MOLT-4 leukemia = test system: MOLT-4 leukemia
NCI-H226 lung = test system: NCI-H226 lung
NCI-H23 lung = test system: NCI-H23 lung
NCI-H460 lung = test system: NCI-H460 lung
NCI-H522 lung = test system: NCI-H522 lung
NCI/ADR-RES ovarian = test system: NCI/ADR-RES ovarian
OVCAR-3 ovarian = test system: OVCAR-3 ovarian
OVCAR-4 ovarian = test system: OVCAR-4 ovarian
OVCAR-5 ovarian = test system: OVCAR-5 ovarian
OVCAR-8 ovarian = test system: OVCAR-8 ovarian
PC-3 prostate = test system: PC-3 prostate
SF-268 CNS = test system: SF-268 CNS
SF-295 CNS = test system: SF-295 CNS
SF-539 CNS = test system: SF-539 CNS
SK-MEL-2 melanoma = test system: SK-MEL-2 melanoma
SK-MEL-28 melanoma = test system: SK-MEL-28 melanoma
SK-MEL-5 melanoma = test system: SK-MEL-5 melanoma
SK-OV-3 ovarian = test system: SK-OV-3 ovarian
SN12C renal = test system: SN12C renal
SNB-19 CNS = test system: SNB-19 CNS
SNB-75 CNS = test system: SNB-75 CNS
SR leukemia = test system: SR leukemia
T-47D breast = test system: T-47D breast
TK-10 renal = test system: TK-10 renal
U251 CNS = test system: U251 CNS
UACC-257 melanoma = test system: UACC-257 melanoma
UACC-62 melanoma = test system: UACC-62 melanoma
UO-31 renal = test system: UO-31 renal
CCRF-CEM leukemia = test system: CCRF-CEM leukemia
HCC-2998 colon = test system: HCC-2998 colon
RXF 393 renal = test system: RXF 393 renal
SW-620 colon = test system: SW-620 colon

In the case of `COc1cc2nc(-c3cccs3)nc(N3C(c4cc(OC)c(OC)c(OC)c4)=NNC(=O)c4ccccc43)c2cc1OC`, the TGI (786-0 renal) is reported as > 100 µM, the TGI (A498 renal) is reported as > 100 µM and the TGI (A549 NSCLC) is reported as > 100 µM. The TGI (ACHN renal) was > 100 µM, the TGI (BT-549 breast) was 39.6 µM and the TGI (CAKI-1 renal) was > 100 µM. The TGI (COLO 205 colon) was > 100 µM, the TGI (DU-145 prostate) was 91.1 µM and the TGI (EKVX NSCLC) was 73.5 µM. For the same compound, the TGI (HCT-116 colon) was > 100 µM, the TGI (HCT-15 colon) was 47.8 µM and the TGI (HL-60(TB) leukemia) was > 100 µM. For the same compound, the TGI (HOP-62 NSCLC) was > 100 µM, the TGI (HOP-92 NSCLC) was > 100 µM and the TGI (HS 578T breast) was > 100 µM. For the same compound, the TGI (HT29 colon) was > 100 µM, the TGI (IGROV1 ovarian) was > 100 µM and the TGI (K-562 leukemia) was > 100 µM. For the same compound, the TGI (KM12 colon) was > 100 µM, the TGI (LOX IMVI melanoma) was 45.8 µM and the TGI (M14 melanoma) was > 100 µM. For the same compound, the TGI (MALME-3M melanoma) was 45 µM, the TGI (MCF7 breast) was > 100 µM and the TGI (MDA-MB-231 breast) was 40.6 µM. The TGI (MDA-MB-435) was 32.1 µM, the TGI (MOLT-4 leukemia) was > 100 µM and the TGI (NCI-H226 lung) was > 100 µM. The TGI (NCI-H23 lung) was 35.4 µM, the TGI (NCI-H460 lung) was > 100 µM and the TGI (NCI-H522 lung) was > 100 µM. It also gave a TGI (NCI/ADR-RES ovarian) of 9.25 µM, a TGI (OVCAR-3 ovarian) of 50.2 µM and a TGI (OVCAR-4 ovarian) of 42.1 µM. For the same compound, the TGI (OVCAR-5 ovarian) was 54.5 µM, the TGI (OVCAR-8 ovarian) was > 100 µM and the TGI (PC-3 prostate) was > 100 µM. For the same compound, the TGI (SF-268 CNS) was > 100 µM, the TGI (SF-295 CNS) was 42.6 µM and the TGI (SF-539 CNS) was 44.6 µM. The TGI (SK-MEL-2 melanoma) was > 100 µM, the TGI (SK-MEL-28 melanoma) was 81.6 µM and the TGI (SK-MEL-5 melanoma) was > 100 µM. The TGI (SK-OV-3 ovarian) was > 100 µM, the TGI (SN12C renal) was 51.3 µM and the TGI (SNB-19 CNS) was 46.3 µM. The TGI (SNB-75 CNS) was 54.2 µM, the TGI (SR leukemia) was > 100 µM and the TGI (T-47D breast) was > 100 µM. For the same compound, the TGI (TK-10 renal) was 51.9 µM, the TGI (U251 CNS) was 50.4 µM and the TGI (UACC-257 melanoma) was > 100 µM. The TGI (UACC-62 melanoma) was 35.8 µM and the TGI (UO-31 renal) was > 100 µM.
In the case of `Cc1cc2nc(-c3ccc(O)c(O)c3)n(Cc3ccc(O)c(O)c3)c2cc1C`, the GI50 (786-0 renal) is reported as 34 µM, the TGI (786-0 renal) is reported as > 100 µM and the GI50 (A498 renal) is reported as 77.2 µM. For the same compound, the TGI (A498 renal) was > 100 µM, the GI50 (A549 NSCLC) was 40.2 µM and the TGI (A549 NSCLC) was > 100 µM. For the same compound, the GI50 (ACHN renal) was 15.3 µM, the TGI (ACHN renal) was 59.6 µM and the GI50 (BT-549 breast) was 28.9 µM. For the same compound, the TGI (BT-549 breast) was > 100 µM, the GI50 (CAKI-1 renal) was 17 µM and the TGI (CAKI-1 renal) was 81.1 µM. It also gave a GI50 (CCRF-CEM leukemia) of 4.23 µM, a TGI (CCRF-CEM leukemia) of 25.5 µM and a GI50 (COLO 205 colon) of 24.5 µM. For the same compound, the TGI (COLO 205 colon) was > 100 µM, the GI50 (DU-145 prostate) was 40.7 µM and the TGI (DU-145 prostate) was > 100 µM. For the same compound, the GI50 (EKVX NSCLC) was 79.9 µM, the TGI (EKVX NSCLC) was > 100 µM and the GI50 (HCC-2998 colon) was 24.6 µM. It also gave a TGI (HCC-2998 colon) of 56.3 µM, a GI50 (HCT-116 colon) of 19.6 µM and a TGI (HCT-116 colon) of 35.1 µM. It also gave a GI50 (HCT-15 colon) of 7.1 µM, a TGI (HCT-15 colon) of 35.8 µM and a GI50 (HL-60(TB) leukemia) of 9.33 µM. The TGI (HL-60(TB) leukemia) was 47.4 µM, the GI50 (HOP-62 NSCLC) was 45.6 µM and the TGI (HOP-62 NSCLC) was > 100 µM. For the same compound, the GI50 (HOP-92 NSCLC) was 9.7 µM, the TGI (HOP-92 NSCLC) was 55 µM and the GI50 (HS 578T breast) was 41.3 µM. For the same compound, the TGI (HS 578T breast) was > 100 µM, the GI50 (HT29 colon) was 45.1 µM and the TGI (HT29 colon) was > 100 µM. The GI50 (IGROV1 ovarian) was 18.1 µM, the TGI (IGROV1 ovarian) was > 100 µM and the GI50 (K-562 leukemia) was 7.43 µM. The TGI (K-562 leukemia) was > 100 µM, the GI50 (KM12 colon) was 23.5 µM and the TGI (KM12 colon) was > 100 µM. For the same compound, the GI50 (LOX IMVI melanoma) was 13.1 µM, the TGI (LOX IMVI melanoma) was 28.4 µM and the GI50 (M14 melanoma) was 39.2 µM. The TGI (M14 melanoma) was > 100 µM, the GI50 (MALME-3M melanoma) was 27.2 µM and the TGI (MALME-3M melanoma) was > 100 µM. For the same compound, the GI50 (MCF7 breast) was 24.4 µM, the TGI (MCF7 breast) was 80.7 µM and the GI50 (MDA-MB-231 breast) was 24.1 µM. For the same compound, the TGI (MDA-MB-231 breast) was 77.3 µM, the GI50 (MDA-MB-435) was 16 µM and the TGI (MDA-MB-435) was > 100 µM. For the same compound, the GI50 (MOLT-4 leukemia) was 4.4 µM, the TGI (MOLT-4 leukemia) was 28.6 µM and the GI50 (NCI-H226 lung) was 18.7 µM. The TGI (NCI-H226 lung) was 35 µM, the GI50 (NCI-H23 lung) was 35.1 µM and the TGI (NCI-H23 lung) was > 100 µM. The GI50 (NCI-H460 lung) was 13.4 µM, the TGI (NCI-H460 lung) was 43.1 µM and the GI50 (NCI-H522 lung) was 6.71 µM. The TGI (NCI-H522 lung) was 23.9 µM, the GI50 (NCI/ADR-RES ovarian) was > 100 µM and the TGI (NCI/ADR-RES ovarian) was > 100 µM. For the same compound, the GI50 (OVCAR-3 ovarian) was 14.6 µM, the TGI (OVCAR-3 ovarian) was 77 µM and the GI50 (OVCAR-4 ovarian) was 54.9 µM. The TGI (OVCAR-4 ovarian) was > 100 µM, the GI50 (OVCAR-5 ovarian) was > 100 µM and the TGI (OVCAR-5 ovarian) was > 100 µM. For the same compound, the GI50 (OVCAR-8 ovarian) was 26.4 µM, the TGI (OVCAR-8 ovarian) was > 100 µM and the GI50 (PC-3 prostate) was 22.5 µM. The TGI (PC-3 prostate) was > 100 µM, the GI50 (RXF 393 renal) was 21.2 µM and the TGI (RXF 393 renal) was > 100 µM. The GI50 (SF-268 CNS) was 18.5 µM, the TGI (SF-268 CNS) was 84.3 µM and the GI50 (SF-295 CNS) was 20.2 µM. For the same compound, the TGI (SF-295 CNS) was 66.3 µM, the GI50 (SF-539 CNS) was 19.7 µM and the TGI (SF-539 CNS) was > 100 µM. The GI50 (SK-MEL-28 melanoma) was 87.6 µM, the TGI (SK-MEL-28 melanoma) was > 100 µM and the GI50 (SK-MEL-5 melanoma) was 17.5 µM. The TGI (SK-MEL-5 melanoma) was 39.9 µM, the GI50 (SK-OV-3 ovarian) was > 100 µM and the TGI (SK-OV-3 ovarian) was > 100 µM. The GI50 (SN12C renal) was 18.5 µM, the TGI (SN12C renal) was 44.8 µM and the GI50 (SNB-19 CNS) was 65 µM. The TGI (SNB-19 CNS) was > 100 µM, the GI50 (SR leukemia) was 4.18 µM and the TGI (SR leukemia) was 19.5 µM. For the same compound, the GI50 (SW-620 colon) was 24.7 µM, the TGI (SW-620 colon) was > 100 µM and the GI50 (T-47D breast) was 31.8 µM. For the same compound, the TGI (T-47D breast) was > 100 µM, the GI50 (TK-10 renal) was 26.9 µM and the TGI (TK-10 renal) was 82.6 µM. The GI50 (U251 CNS) was 5 µM, the TGI (U251 CNS) was > 100 µM and the GI50 (UACC-257 melanoma) was 36 µM. For the same compound, the TGI (UACC-257 melanoma) was 95.9 µM, the GI50 (UACC-62 melanoma) was 19 µM and the TGI (UACC-62 melanoma) was 41.1 µM. For the same compound, the GI50 (UO-31 renal) was 64.3 µM and the TGI (UO-31 renal) was > 100 µM.

From PubChem BioAssay (NCI)
